For orientation: IC50 means the concentration that inhibits the measured activity by half.

Our source for the IC50 and inhibition values is US20250042920A1 (OCEAN UNIVERSITY OF CHINA, priority 2021, published 2025).

For test [1], the target named is MNK1 (Homo sapiens, UniProt Q9BUB5). The test can be described thus: MNK1 kinase inhibition assay (LANCE Ultra kinase activity assay, PerkinElmer). The class given is biochemical. As to conditions: 450 μM ATP; for IC50: five concentrations 10000-1 nM; for inhibition at 1 µM: inhibition rate at 1000 nM compound, 60 min, 25° C., read-out: Inhibitory activity(1 μM) MNK1. As to the method: (§1) MNK1 and MNK2 kinase inhibition assays were performed using LANCE Ultra kinase activity assay developed by PerkinElmer. […] The test steps are as follows: At 25° C., 1.00 ng MNK1 or 0.05 ng MNK2 was prepared with different concentrations (10000, 1000, 100, 10, 1 nM) of the tested compound to form a total volume of 10 μL reaction mixture (MNK1: 12.5 nM CREB, 450 μM ATP, 2 mM DTT, 1× buffer; MNK2: 12.5 nM CREB, 100 μM ATP, 2 mM DTT, 1×buffer), and incubation for 60 min. The reaction was terminated by adding 5 μL EDTA/Detection buffer and 5 μL Eu-CREB/Detection buffer. The ratio of HTRF signals at 615 nm and 665 nm was detected after 60 min of incubation. The inhibition rate was calculated by measuring the compounds at 1000 nM.
(§2) Then five different concentrations (10000, 1000, 100, 10, 1 nM) of the tested compounds were measured, and the IC50 value was calculated according to the inhibition rate fitting curve.

In test [2] the target is MNK2 (Homo sapiens, UniProt Q9HBH9). Kind of test: MNK2 kinase inhibition assay (LANCE Ultra kinase activity assay, PerkinElmer). The class given is biochemical. As to conditions: 100 μM ATP; for IC50: five concentrations 10000-1 nM; for inhibition at 1 µM: inhibition rate at 1000 nM compound, 60 min, 25° C., read-out: Inhibitory activity(1 μM) MNK2. As for the experimental part:
as §1, §2
On the technique in general: Time-resolved FRET reads energy transfer from a long-lived donor to a nearby acceptor.

Each structure is given as a SMILES string.

Chain of MNK2 (Q9HBH9 whole entry): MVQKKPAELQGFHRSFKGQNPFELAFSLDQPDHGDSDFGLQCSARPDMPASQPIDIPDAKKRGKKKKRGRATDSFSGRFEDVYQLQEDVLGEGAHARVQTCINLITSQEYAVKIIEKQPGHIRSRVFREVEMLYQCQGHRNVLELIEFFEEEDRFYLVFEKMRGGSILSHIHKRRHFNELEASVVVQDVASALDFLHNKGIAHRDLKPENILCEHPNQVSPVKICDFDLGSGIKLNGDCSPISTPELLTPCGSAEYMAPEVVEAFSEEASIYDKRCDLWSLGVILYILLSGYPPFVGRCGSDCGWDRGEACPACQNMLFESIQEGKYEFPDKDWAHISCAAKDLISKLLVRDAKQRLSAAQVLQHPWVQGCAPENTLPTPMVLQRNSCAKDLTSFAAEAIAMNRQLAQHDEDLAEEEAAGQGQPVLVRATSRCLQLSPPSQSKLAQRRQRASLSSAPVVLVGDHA
Chain of MNK1 (Q9BUB5 whole entry): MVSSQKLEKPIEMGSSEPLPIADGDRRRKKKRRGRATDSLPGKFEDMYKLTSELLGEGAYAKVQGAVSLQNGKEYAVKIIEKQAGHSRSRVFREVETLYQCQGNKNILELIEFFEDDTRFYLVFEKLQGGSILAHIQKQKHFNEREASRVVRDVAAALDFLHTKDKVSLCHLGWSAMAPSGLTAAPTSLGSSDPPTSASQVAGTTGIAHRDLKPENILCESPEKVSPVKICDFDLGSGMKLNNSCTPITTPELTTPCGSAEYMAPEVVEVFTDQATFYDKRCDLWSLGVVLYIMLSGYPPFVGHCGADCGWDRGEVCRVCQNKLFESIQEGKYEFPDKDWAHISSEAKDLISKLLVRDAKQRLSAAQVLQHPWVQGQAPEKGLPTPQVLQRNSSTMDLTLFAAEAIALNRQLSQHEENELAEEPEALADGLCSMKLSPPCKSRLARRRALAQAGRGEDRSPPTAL

Consider `CN(C)C1CCN(C(=O)c2ccc(-c3nn4c(-c5ccc(F)cc5)cnc4s3)cc2)CC1` [Compound 13, (4-(dimethylamino)piperidin-1-yl)(4-(5-(4-fluorophenyl)imidazo[2,1-b][1,3,4]thiadiazol-2-yl)phenyl)methanone], for which, in test [1], the IC50 was less than 50 nM and the inhibition at 1 µM is more than 75%. In test [2], the IC50 was less than 50 nM and the inhibition at 1 µM was more than 75%.
Take `N#Cc1ccc(-c2cnc3sc(-c4ccc(C(=O)N5CCOCC5)cc4)nn23)cc1` [Compound 1, 4-(2-(4-(morpholine-4-carbonyl)phenyl)imidazo[2,1-b][1,3,4]thiadiazol-5-yl)benzonitrile]: in test [1], the 50% inhibitory concentration (IC50) is less than 50 nM and the inhibition at 1 µM was more than 75%. Besides, in test [2], the IC50 is less than 50 nM and the inhibition at 1 µM is more than 75%.
With `CN1CCN(C(=O)c2ccc(-c3nn4c(-c5ccc(Cl)cc5)cnc4s3)cc2)CC1` [Compound 22, (4-(5-(4-chlorophenyl)imidazo[2,1-b][1,3,4]thiadiazol-2-yl)phenyl)(4-methylpiperazin-1-yl)methanone], in test [1], the IC50 is less than 50 nM and the inhibition at 1 µM was more than 75%. In test [2], the IC50 is less than 50 nM and the inhibition at 1 µM is more than 75%.
Take `CN1CCN(C(=O)c2ccc(-c3nn4c(-c5ccncc5)cnc4s3)cc2)CC1` [Compound 20, (4-methylpiperazin-1-yl)(4-(5-(pyridin-4-yl)imidazo[2,1-b][1,3,4]thiadiazol-2-yl)phenyl)methanone]: in test [1], the IC50 was in the range of 200 to 800 nM and the inhibition at 1 µM is more than 75%. Also, in test [2], the IC50 was 50 to 200 nM and the inhibition at 1 µM was more than 75%.
Regarding `O=C(c1ccc(-c2nn3c(-c4ccc(C(F)(F)F)c(F)c4)cnc3s2)cc1)N1CCOCC1` [Compound 9, (4-(5-(3-fluoro-4-(trifluoromethyl)phenyl)imidazo[2,1-b][1,3,4]thiadiazol-2-yl)phenyl)(morpholino)methanone], the inhibition at 1 µM in test [1] and in test [2] was more than 75% each time.
For the molecule `O=C(c1ccc(-c2cn3c(-c4ccc(C(F)(F)F)cc4)csc3n2)cc1)N1CCOCC1` [Compound 46, morpholino(4-(3-(4-(trifluoromethyl)phenyl)imidazo[2,1-b]thiazol-6-yl)phenyl)methanone], the inhibition at 1 µM in test [1] and in test [2] was 25 to 50% each time.
In the case of `CN1CCN(C(=O)c2ccc(-c3cn4c(-c5ccc(C(F)(F)F)cc5)csc4n3)cc2)CC1` [Compound 50, (4-methylpiperazin-1-yl)(4-(3-(4-(trifluoromethyl)phenyl)imidazo[2,1-b]thiazol-6-yl)phenyl)methanone], the inhibition at 1 µM in test [1] and in test [2] was 25 to 50% in each case.
In the case of `O=C(c1ccc(-c2nn3c(-c4ccc(CO)cc4)cnc3s2)cc1)N1CCOCC1` [Compound 8], in test [1], the IC50 fell in the range of 200 to 800 nM and the inhibition at 1 µM is more than 75%. Also, in test [2], the IC50 was in the range of 200 to 800 nM and the inhibition at 1 µM was more than 75%.
As to `CN1CCN(C(=O)c2ccc(-c3nn4c(-c5ccc(C#N)nc5)cnc4s3)cc2)CC1` [Compound 27, 5-(2-(4-(4-methylpiperazine-1-carbonyl)phenyl)imidazo[2,1-b][1,3,4]thiadiazol-5-yl)picolinonitrile], the inhibition at 1 µM in test [1] and in test [2] was 25 to 50% each time.
With `CN(C)CCNC(=O)c1ccc(-c2nn3c(-c4ccc(C#N)cc4)cnc3s2)cc1` [Compound 36, 4-(5-(4-cyanophenyl)imidazo[2,1-b][1,3,4]thiadiazol-2-yl)-N-(2-(dimethylamino)ethyl)benzamide], the IC50 in test [1] and in test [2] was less than 50 nM throughout. The inhibition at 1 µM in test [1] and in test [2] was more than 75% each time.
`CN(C)C1CCN(C(=O)c2ccc(-c3cn4c(-c5ccc(F)cc5)csc4n3)cc2)CC1` [Compound 53, (4-(dimethylamino)piperidin-1-yl)(4-(3-(4-fluorophenyl)imidazo[2,1-b]thiazol-6-yl)phenyl)methanone]: the inhibition at 1 µM in test [1] and in test [2] was 25 to 50% throughout.
In the case of `N#Cc1ccc(-c2cnc3sc(-c4ccc(C(=O)SCCO)cc4)nn23)cc1` [Compound 35, S-(2-hydroxyethyl)4-(5-(4-cyanophenyl)imidazo[2,1-b][1,3,4]thiadiazol-2-yl)benzothioate], the inhibition at 1 µM in test [1] and in test [2] was 25 to 50% throughout.
On to `CN1CCN(C(=O)c2ccc(-c3nn4c(-c5ccc(C(F)(F)F)c(F)c5)cnc4s3)cc2)CC1` [Compound 23, (4-(5-(3-fluoro-4-(trifluoromethyl)phenyl)imidazo[2,1-b][1,3,4]thiadiazol-2-yl)phenyl)(4-methylpiperazin-1-yl)methanone], for which, in test [1], the IC50 is 200 to 800 nM and the inhibition at 1 µM was more than 75%. Also, in test [2], the IC50 fell in the range of 200 to 800 nM and the inhibition at 1 µM was more than 75%.
Consider `N#Cc1ccc(-c2cnc3sc(-c4ccc(C(=O)NCCCN5CCOCC5)cc4)nn23)cc1` [Compound 37, 4-(5-(4-cyanophenyl)imidazo[2,1-b][1,3,4]thiadiazol-2-yl)-N-(3-morpholinopropyl)benzamide], for which the IC50 in test [1] and in test [2] was less than 50 nM in each case. Besides, the inhibition at 1 µM in test [1] and in test [2] was more than 75% in each case.
For the molecule `O=C(c1ccc(-c2nn3c(-c4ccc(C(F)(F)F)cc4)cnc3s2)cc1)N1CCOCC1` [Compound 5, morpholino(4-(5-(4-(trifluoromethyl)phenyl)imidazo[2,1-b][1,3,4]thiadiazol-2-yl)phenyl)methanone], the IC50 in test [1] and in test [2] was 50 to 200 nM each time. In addition, the inhibition at 1 µM in test [1] and in test [2] was more than 75% each time.
On to `O=C(c1ccc(-c2nn3c(-c4ccc(F)c(F)c4)cnc3s2)cc1)N1CCOCC1` [Compound 11, (4-(5-(3,4-difluorophenyl)imidazo[2,1-b][1,3,4]thiadiazol-2-yl)phenyl)(morpholino)methanone], for which the inhibition at 1 µM in test [1] and in test [2] was more than 75% throughout.
Take `CN1CCN(C(=O)c2ccc(-c3nn4c(-c5ccc(C#N)c(F)c5)cnc4s3)cc2)CC1` [Compound 24, 2-fluoro-4-(2-(4-(4-methylpiperazine-1-carbonyl)phenyl)imidazo[2,1-b][1,3,4]thiadiazol-5-yl)benzonitrile]: in test [1], the IC50 was 50 to 200 nM and the inhibition at 1 µM was more than 75%. For the same molecule, in test [2], the IC50 was 50 to 200 nM and the inhibition at 1 µM is more than 75%.
On to `CN1CCN(C(=O)c2ccc(-c3cn4c(-c5ccc(C#N)cc5)csc4n3)cc2)CC1` [Compound 48, 4-(6-(4-(4-methylpiperazine-1-carbonyl)phenyl)imidazo[2,1-b]thiazol-3-yl)benzonitrile], for which the inhibition at 1 µM in test [1] and in test [2] was 25 to 50% each time.
For `CN(C)C1CCN(C(=O)c2ccc(-c3cn4c(-c5ccc(Cl)cc5)csc4n3)cc2)CC1` [Compound 55, (4-(3-(4-chlorophenyl)imidazo[2,1-b]thiazol-6-yl)phenyl)(4-(dimethylamino)piperidin-1-yl)methanone], the inhibition at 1 µM in test [1] and in test [2] was 25 to 50% throughout.
As for `CN1CCN(C(=O)c2ccc(-c3cn4c(-c5ccc(Cl)cc5)csc4n3)cc2)CC1` [Compound 51, (4-(3-(4-chlorophenyl)imidazo[2,1-b]thiazol-6-yl)phenyl)(4-methylpiperazin-1-yl)methanone], the inhibition at 1 µM in test [1] and in test [2] was 25 to 50% throughout.
With `CN1CCN(C(=O)c2ccc(-c3nn4c(-c5ccc([N+](=O)[O-])cc5)cnc4s3)cc2)CC1` [Compound 25, (4-methylpiperazin-1-yl)(4-(5-(4-nitrophenyl)imidazo[2,1-b][1,3,4]thiadiazol-2-yl)phenyl)methanone], in test [1], the IC50 is less than 50 nM and the inhibition at 1 µM was more than 75%. Besides, in test [2], the IC50 is less than 50 nM and the inhibition at 1 µM was more than 75%.
As to `CN1CCN(C(=O)c2ccc(-c3nn4c(-c5ccc(C(F)(F)F)nc5)cnc4s3)cc2)CC1` [Compound 29, (4-methylpiperazin-1-yl)(4-(5-(6-(trifluoromethyl)pyridin-3-yl)imidazo[2,1-b][1,3,4]thiadiazol-2-yl)phenyl)methanone], the inhibition at 1 µM in test [1] and in test [2] was 25 to 50% throughout.
Turning to `O=C(c1ccc(-c2cn3c(-c4ccc(Cl)cc4)csc3n2)cc1)N1CCOCC1` [Compound 47, (4-(3-(4-chlorophenyl)imidazo[2,1-b]thiazol-6-yl)phenyl)(morpholino)methanone], the inhibition at 1 µM in test [1] and in test [2] was 25 to 50% each time.
For the molecule `O=C(c1ccc(-c2nn3c(-c4ccc(F)cc4)cnc3s2)cc1)N1CCOCC1` [Compound 2, (4-(5-(4-fluorophenyl)imidazo[2,1-b][1,3,4]thiadiazol-2-yl)phenyl)(morpholino)methanone], in test [1], the IC50 lay within 200 to 800 nM and the inhibition at 1 µM is more than 75%. Further, in test [2], the IC50 is less than 50 nM and the inhibition at 1 µM was more than 75%.
In the case of `CN(C)C1CCN(C(=O)c2ccc(-c3nn4c(-c5ccc(C(F)(F)F)cc5)cnc4s3)cc2)CC1` [Compound 16], in test [1], the IC50 is less than 50 nM and the inhibition at 1 µM is more than 75%. For the same molecule, in test [2], the IC50 is less than 50 nM and the inhibition at 1 µM was more than 75%.
